For this experiment, the system named is MX-1 breast xenograft, nude mice, tumor weight T/C. Put plainly: NCI In Vivo Anticancer Drug Screen. Data for tumor model Human Mammary Carcinoma MX-1 Xenograft (intrarenal inoculation) in NU/NU Swiss (nude) mice. Particulars: endpoint: mean tumor weight change, higher = larger tumour. In a few lines: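 Antitumour effect measured in vivo against vehicle controls, expressed as T/C.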

The mark [1] stands for this setting: dose: 300.0 mg/kg/injection, schedule: Q04DX003 (sc), vehicle: saline with Tween-80.
Setting [2] is: dose: 600.0 mg/kg/injection, schedule: Q04DX003 (sc), vehicle: saline with Tween-80.
The mark [3] stands for this setting: dose: 75.0 mg/kg/injection, schedule: Q04DX003 (sc), vehicle: water.
The mark [4] stands for this setting: dose: 75.0 mg/kg/injection, schedule: Q04DX003 (sc), vehicle: saline with Tween-80.
The mark [5] stands for this setting: dose: 150.0 mg/kg/injection, schedule: Q04DX003 (sc), vehicle: saline with Tween-80.
[6] abbreviates: dose: 1200.0 mg/kg/injection, schedule: Q04DX003 (sc), vehicle: saline with Tween-80.
Where [7] appears, read: dose: 2400.0 mg/kg/injection, schedule: Q04DX003 (sc), vehicle: saline with Tween-80.

Records with an inconclusive call do not appear.

Consider `CNc1nc(N(C)C)nc(N(C)C)n1`, for which the T/C reads like this: (dose: 12.5 mg/kg/injection, schedule: Q04DX003 (sc), vehicle: water) 59 % of control; (dose: 25.0 mg/kg/injection, schedule: Q04DX003 (sc), vehicle: water) 60 % of control; (dose: 30.0 mg/kg/injection, schedule: Q01DX010 (sc), vehicle: water) 24 % of control; (dose: 50.0 mg/kg/injection, schedule: Q04DX003 (sc), vehicle: water) 34 % of control; (dose: 60.0 mg/kg/injection, schedule: Q01DX010 (sc), vehicle: water) 3 % of control; (dose: 100.0 mg/kg/injection, schedule: Q04DX003 (sc), vehicle: water) 10 % of control. Also, the T/C (dose: 120.0 mg/kg/injection, schedule: Q01DX010 (sc), vehicle: water) was -63 % of control.
Turning to `CCCCCCCCCCCCSC1=C(Cl)C(=O)C(OC)=C(OC)C1=O`, the T/C is, setting by setting: under setting [1], 47 % of control; under setting [2], 77 % of control.
With `O=C(Nc1ccc(C2=NCCN2)cc1)c1ccc(C(=O)Nc2ccc(C3=NCCN3)cc2)c(Cl)c1`, the T/C reads like this: under setting [3], 81 % of control; (dose: 150.0 mg/kg/injection, schedule: Q04DX003 (sc), vehicle: water) 49 % of control; (dose: 300.0 mg/kg/injection, schedule: Q04DX003 (sc), vehicle: water) 21 % of control.
Regarding `Cc1ccccc1SSc1ccccc1C`, the T/C is 88 % of control (dose: 200.0 mg/kg/injection, schedule: Q01DX010 (sc), vehicle: saline with Tween-80); 96 % of control (dose: 400.0 mg/kg/injection, schedule: Q01DX010 (sc), vehicle: saline with Tween-80); 91 % of control (dose: 800.0 mg/kg/injection, schedule: Q01DX010 (sc), vehicle: saline with Tween-80).
As for `C=C(C)[C@H]1Cc2c(ccc3c2O[C@@H]2COc4cc(OC)c(OC)cc4[C@@H]2C3=O)O1`, the T/C by setting is: (dose: 4.0 mg/kg/injection, schedule: Q01DX010 (sc), vehicle: saline with Tween-80) 94 % of control; (dose: 8.0 mg/kg/injection, schedule: Q01DX010 (sc), vehicle: saline with Tween-80) 80 % of control.
Regarding `O=S(=O)(N=N/C=C1\C=CC=CN1O)c1cccs1`, the T/C reads like this: under setting [4], 99 % of control; under setting [5], 77 % of control; under setting [1], 72 % of control.
In the case of `COc1cccc2c1C(=O)c1c(O)c3c(c(O)c1C2=O)C[C@@](O)(C(=O)CO)C[C@@H]3OC1CC(OC(C)=O)C(OC(C)=O)C(C)O1` (some centres undefined), the T/C was 82 % of control (dose: 6.25 mg/kg/injection, schedule: Q01DX010 (sc), vehicle: distilled water + Tween-80) and 96 % of control (dose: 12.5 mg/kg/injection, schedule: Q01DX010 (sc), vehicle: distilled water + Tween-80).
Take `C=C1C(C)C2C(Cc3ccccc3)NC(=O)C23C(OC(C)=O)C=CC(C)(O)C(=O)C(C)C/C=C/C3C1O` (centres undefined): the T/C is 344 % of control (dose: 3.75 mg/kg/injection, schedule: Q04DX003 (sc), vehicle: Klucel (hydroxypropylcellulose) (HPC)); 528 % of control (dose: 7.5 mg/kg/injection, schedule: Q04DX003 (sc), vehicle: Klucel (hydroxypropylcellulose) (HPC)); 497 % of control (dose: 15.0 mg/kg/injection, schedule: Q04DX003 (sc), vehicle: Klucel (hydroxypropylcellulose) (HPC)).
As for `C[Si](C)(C)O/C=C1\CCCCC1=O`, the T/C by setting is: (dose: 200.0 mg/kg/injection, schedule: Q04DX003 (sc), vehicle: saline with Tween-80) 94 % of control; (dose: 400.0 mg/kg/injection, schedule: Q04DX003 (sc), vehicle: saline with Tween-80) 89 % of control.
In the case of `COC1CC(C)C(OC)c2cc(O)cc(c2O)NC(=O)/C(C)=C/C=C\C(C)C(OC(N)=O)/C(C)=C\C(C)C1OC` (centres undefined), the T/C is 103 % of control (dose: 12.5 mg/kg/injection, schedule: Q04DX003 (sc), vehicle: saline + alcohol); 104 % of control (dose: 25.0 mg/kg/injection, schedule: Q04DX003 (sc), vehicle: saline + alcohol); 90 % of control (dose: 50.0 mg/kg/injection, schedule: Q04DX003 (sc), vehicle: saline + alcohol); 109 % of control (dose: 100.0 mg/kg/injection, schedule: Q04DX003 (sc), vehicle: saline + alcohol).
Consider `CCC1CCCCN1C(=S)N/N=C(\C)c1ccccn1` (centres undefined), for which the T/C was 53 % of control (dose: 18.75 mg/kg/injection, schedule: Q04DX003 (sc), vehicle: saline with Tween-80); 97 % of control (dose: 37.5 mg/kg/injection, schedule: Q04DX003 (sc), vehicle: saline with Tween-80); 82 % of control under setting [4].
`CCOC(=O)Nc1cc2c(c(N)n1)N=C(c1ccccc1)CN2`: the T/C runs as follows: (dose: 6.25 mg/kg/injection, schedule: Q04DX003 (sc), vehicle: saline with Tween-80) 80 % of control; (dose: 12.5 mg/kg/injection, schedule: Q04DX003 (sc), vehicle: saline with Tween-80) 83 % of control; (dose: 25.0 mg/kg/injection, schedule: Q04DX003 (sc), vehicle: saline with Tween-80) 68 % of control.
Take `COc1cc(Cl)ccc1C`: the T/C is 108 % of control under setting [1], 88 % of control under setting [2], 95 % of control under setting [6] and 76 % of control under setting [7].
With `CSc1cc(C)[o+]c(C)c1`, the T/C is, setting by setting: (dose: 25.0 mg/kg/injection, schedule: Q04DX003 (sc), vehicle: Klucel (hydroxypropylcellulose) (HPC)) 76 % of control; (dose: 50.0 mg/kg/injection, schedule: Q04DX003 (sc), vehicle: Klucel (hydroxypropylcellulose) (HPC)) 68 % of control; (dose: 100.0 mg/kg/injection, schedule: Q04DX003 (sc), vehicle: Klucel (hydroxypropylcellulose) (HPC)) 54 % of control; (dose: 200.0 mg/kg/injection, schedule: Q04DX003 (sc), vehicle: Klucel (hydroxypropylcellulose) (HPC)) 36 % of control.
With `COc1cccc2c1C(=O)c1c(O)c3c(c(O)c1C2=O)C[C@@](O)(C(=O)CO)C[C@@H]3OC1CC(N)CC(C)O1` (some centres undefined), the T/C runs as follows: (dose: 0.19 mg/kg/injection, schedule: Q01DX010 (sc), vehicle: water) 43 % of control; (dose: 0.37 mg/kg/injection, schedule: Q01DX010 (sc), vehicle: water) 51 % of control; (dose: 0.75 mg/kg/injection, schedule: Q01DX010 (sc), vehicle: water) 61 % of control; (dose: 1.5 mg/kg/injection, schedule: Q01DX010 (sc), vehicle: water) 59 % of control.
With `CC(C)=CCNc1ncnc2c1ncn2C1OC(CO)C(O)C1O` (centres undefined), the T/C (dose: 100.0 mg/kg/injection, schedule: Q04DX003 (sc), vehicle: suspension in saline) was 122 % of control.
As to `c1cc(OCC2CO2)ccc1OCC1CO1` (centres undefined), the T/C is 110 % of control under setting [1], 103 % of control under setting [2], 92 % of control under setting [6] and 106 % of control under setting [7].
For the compound `Nc1n[n+](-c2ccccc2)no1`, the T/C runs as follows: (dose: 18.75 mg/kg/injection, schedule: Q04DX003 (sc), vehicle: water) 70 % of control; (dose: 37.5 mg/kg/injection, schedule: Q04DX003 (sc), vehicle: water) 94 % of control; under setting [3], 59 % of control.
As for `CC(/C=C/c1ccccc1)=Nc1ccccc1`, the T/C is, setting by setting: under setting [5], 71 % of control; under setting [1], 83 % of control; under setting [2], 69 % of control; under setting [6], 93 % of control.
With `COc1cccc2c1C(=O)c1c(O)c3c(c(O)c1C2=O)C[C@@](O)(/C(CO)=N/NC(=O)c1ccc(Cl)c(Cl)c1)C[C@@H]3OC1CC(N)C(O)C(C)O1` (some centres undefined), the T/C (dose: 8.0 mg/kg/injection, schedule: Q01DX010 (sc), vehicle: water) is 42 % of control.
For the compound `O=CC(=O)c1ccc(O)cc1`, the T/C by setting is: (dose: 150.0 mg/kg/injection, schedule: Q04DX003 (sc), vehicle: saline) 95 % of control; (dose: 300.0 mg/kg/injection, schedule: Q04DX003 (sc), vehicle: saline) 69 % of control.

(Values after PubChem BioAssay AID296 (DTP/NCI, 2004).)
